Assay results from patent US20050148631A1, “Amino heterocyclyl inhibitors of 11-beta-hydroxy steroid dehydrogenase type 1” (AGOURON PHARMACEUTICALS, INC., priority 2003, published 2005).
Where two headings read alike, the source gives them in different places.

Legend:
11β-hsd-1 enzyme [1] = biological target: T1, 11β-hsd-1 enzyme (Homo sapiens, UniProt P28845); test: 11β-hsd-1 enzyme assay, Kiapp determination (3H-cortisone to cortisol, radio-HPLC); format: biochemical; details: apparent Ki, 11β-hsd-1 enzyme; read-out: Ki app
11β-hsd-1 enzyme [2] = biological target: T1, 11β-hsd-1 enzyme; test: 11β-hsd-1 enzyme assay, percentage of inhibition (3H-cortisone to cortisol, radio-HPLC); format: biochemical
normal subjects = details: ingestion; cited from earlier work
healthy human volunteers = details: cited from earlier work
[3] = compound at 0.1 uM, read-out: % inh @ 0.1 uM

T1 sequence (P28845 whole entry, species assumed): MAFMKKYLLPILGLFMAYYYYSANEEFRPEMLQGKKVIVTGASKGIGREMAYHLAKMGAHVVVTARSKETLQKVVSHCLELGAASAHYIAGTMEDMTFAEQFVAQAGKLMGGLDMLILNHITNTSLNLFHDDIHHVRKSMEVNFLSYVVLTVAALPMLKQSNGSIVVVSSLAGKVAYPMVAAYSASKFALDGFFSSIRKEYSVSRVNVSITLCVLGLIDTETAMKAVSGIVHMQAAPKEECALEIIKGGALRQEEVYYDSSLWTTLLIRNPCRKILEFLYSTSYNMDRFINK

| SMILES | Ki (11β-hsd-1 enzyme [1]) [nM] | inhibition at 0.1 µM (11β-hsd-1 enzyme [2]; [3]) [%] | inhibition at 0.1 µM (11β-hsd-1 enzyme [2]; read-out: % inh @ 0.1 uM, compound at 0.1 uM) [%] | reduction of intraocular pressure (normal subjects) [%] | hepatic insulin sensitivity (healthy human volunteers) |
| --- | --- | --- | --- | --- | --- |
| Cc1cccc(NS(=O)(=O)c2ccc(-c3ccc(F)cc3)nc2)n1 [Example 268] | 40 | 70 |  |  |  |
| COc1cc(-c2ccc(S(=O)(=O)Nc3cccc(C)n3)cc2)ccc1C#N [Example 270, 4′-Cyano-3′-methoxy-biphenyl-4-sulfonic acid (6-methyl-pyridin-2-yl)-amide] | 10.7 | 94.8 |  |  |  |
| Cc1cccc(NS(=O)(=O)c2ccc(-c3ccc(C(F)(F)F)cn3)cc2)n1 [Example 271] | 20 | 87.7 |  |  |  |
| Cc1cccc(NS(=O)(=O)c2ccc(-c3ccc(C#N)cc3C(F)(F)F)cc2)n1 [Example 272] | 12 | 100 |  |  |  |
| Cc1cccc(NS(=O)(=O)c2ccc(-c3ccc(C#N)c(C)c3)cc2)n1 [Example 273] | 5.3 | 95.5 |  |  |  |
| Cc1cccc(NS(=O)(=O)c2ccc(-c3ccc(C#N)c(Cl)c3)cc2)n1 [Example 274] | 3.5 | 94.4 |  |  |  |
| Cc1cccc(NS(=O)(=O)c2ccc(-c3ccc(C#N)cc3)cc2C)n1 [Example 277, 4′-Cyano-3-methyl-biphenyl-4-sulfonic acid (6-methyl-pyridin-2-yl)-amide] | < 1 | 100 |  |  |  |
| Cc1cccc(NS(=O)(=O)c2ccc(-c3ccc(F)cc3)cc2C)n1 [Example 279] | 4.5 | 100 |  |  |  |
| Cc1cccc(NS(=O)(=O)c2ccc(-c3ccc(F)cc3)c(C)c2)n1 [Example 280] | 15 | 91 |  |  |  |
| Cc1cccc(NS(=O)(=O)c2ccc(-c3ccc(C#N)cc3)c(C)c2)n1 [Example 281] | 10 | 92.9 |  |  |  |
| Cc1cc(-c2ccc(S(=O)(=O)Nc3cccc(N)n3)cc2)ccc1C#N [Example 282, 4′-Cyano-3′-methyl-biphenyl-4-sulfonic acid (6-amino-pyridin-2-yl)-amide] | < 1 | 100 |  |  |  |
| Cc1cccc(NS(=O)(=O)c2ccc(-c3ccc(C#N)cc3)cc2F)n1 [Example 283, 4′-Cyano-3-fluoro-biphenyl-4-sulfonic acid (6-methyl-pyridin-2-yl)-amide] | 5.7 | 100 |  |  |  |
| Cc1cccc(NS(=O)(=O)c2ccc(-c3ccc(C#N)cc3)c(F)c2)n1 [Example 284, 4′-Cyano-2-fluoro-biphenyl-4-sulfonic acid (6-methyl-pyridin-2-yl)-amide] | 3.4 | 100 |  |  |  |
| Cc1cccc(NS(=O)(=O)c2ccc(-c3ccc(C#N)cc3)c(C(F)(F)F)c2)n1 [Example 285, 4′-Cyano-2-trifluoromethyl-biphenyl-4-sulfonic acid (6-methyl-pyridin-2-yl)-amide] | 2.9 | 100 |  |  |  |
| Cc1cccc(NS(=O)(=O)c2ccc(-c3ccc(C#N)cc3)cc2O)n1 [Example 286, 4′-Cyano-3-hydroxy-biphenyl-4-sulfonic acid (6-methyl-pyridin-2-yl)-amide] | 6.2 | 100 |  |  |  |
| N#Cc1ccc(-c2ccc(S(=O)(=O)Nc3ccc4ccccc4n3)cc2)nc1 [Example 288] | 11 | 91 |  |  |  |
| N#Cc1ccc(-c2ccc(S(=O)(=O)Nc3ccc4ccccc4n3)cc2)cn1 [Example 289] | 68 | 73.9 |  |  |  |
| N#Cc1ccc(-c2ccc(S(=O)(=O)Nc3ccc4ccccc4n3)cn2)cc1 [Example 290, 6-(4-Cyano-phenyl)-pyridine-3-sulfonic acid quinolin-2-ylamide] | 12 | 100 |  |  |  |
| O=S(=O)(Nc1ccc2ccccc2n1)c1ccc(-c2ccc(F)cc2)nc1 [Example 291] | 27 | 92.5 |  |  |  |

| SMILES | Ki (11β-hsd-1 enzyme [1]) [nM] | inhibition at 0.1 µM (11β-hsd-1 enzyme [2]; [3]) [%] | inhibition at 0.1 µM (11β-hsd-1 enzyme [2]; read-out: % inh @ 0.1 uM, compound at 0.1 uM) [%] | reduction of intraocular pressure (normal subjects) [%] | hepatic insulin sensitivity (healthy human volunteers) |
| --- | --- | --- | --- | --- | --- |
| Cc1cc(-c2ccc(S(=O)(=O)Nc3ccc4ccccc4n3)cn2)ccc1F [Example 292] | 49 | 72.4 |  |  |  |
| N#Cc1ccc(-c2ccc(S(=O)(=O)Nc3cccc(C4CC4)n3)cn2)cc1 [Example 293, 6-(4-Cyano-phenyl)-pyridine-3-sulfonic acid (6-cyclopropyl-pyridin-2-yl)-amide] | 6.4 | 100 |  |  |  |
| O=S(=O)(Nc1cccc(C2CC2)n1)c1ccc(-c2ccc(C(F)(F)F)cc2)nc1 [Example 294] | 7.3 | 94.6 |  |  |  |
| Cc1cccc(NS(=O)(=O)c2sc3ccc(C#N)cc3c2C)n1 [Example 295, 5-Cyano-3-methyl-benzo[b]thiophene-2-sulfonic acid (6-methyl-pyridin-2-yl)-amide] | 2.3 | 100 |  |  |  |
| Cc1cccc(NS(=O)(=O)N2CCc3ccccc3C2)n1 [Example 300] | 11 | 88.3 |  |  |  |
| Cc1cccc(NS(=O)(=O)N2CCC(c3ccc(F)cc3)CC2)n1 [Example 301] | 4.9 | 100 |  |  |  |
| CCc1cccc(NS(=O)(=O)N2CCc3ccccc3C2)n1 [Example 303] | 7.6 | 89.3 |  |  |  |
| Cc1cc(C)nc(NS(=O)(=O)N2CCc3ccccc3C2)c1 [Example 304] | 20 | 79.6 |  |  |  |
| Cc1cccc(NS(=O)(=O)N2CCC(c3ccccc3)CC2)n1 [Example 306] | 7.4 | 100 |  |  |  |
| N#Cc1ccc(C2CCN(S(=O)(=O)Nc3ccc4ccccc4n3)CC2)cc1 [Example 308] | < 1 | 95.7 |  |  |  |
| Cc1cccc(NS(=O)(=O)N2CCC(c3cccc(F)c3)CC2)n1 [Example 309] | 7.6 | 90 |  |  |  |
| Cc1cccc(NS(=O)(=O)N2CCC(c3ccc(C#N)cc3)CC2)n1 [Example 310] | 18 |  | 100 |  |  |
| Cc1cc(C)nc(NS(=O)(=O)N2CCC(c3ccc(C#N)cc3)CC2)c1 [Example 311] | 2.6 | 100 |  |  |  |
| Cc1cccc(NS(=O)(=O)N2CCC(Oc3ccccc3)CC2)n1 [Example 314] | 52 | 71.8 |  |  |  |
| O=S(=O)(Nc1ccc2ccccc2n1)N1CCc2conc2CC1 [Example 315] | 25 | 86.1 |  |  |  |
| O=S(=O)(Nc1ccc2ccccc2n1)N1CCC(c2ccccn2)CC1 [Example 316] | 67 | 67.4 |  |  |  |
| N#Cc1ccc(C2CCN(S(=O)(=O)Nc3cccc(N)n3)CC2)cc1 [Example 317, 4-(4-Cyano-phenyl)-piperidine-1-sulfonic acid (6-amino-pyridin-2-yl)-amide] | < 1 | 100 |  |  |  |
| CC1(C)[C@@H](OC(=O)CCC(=O)O)CC[C@]2(C)[C@H]3C(=O)C=C4[C@@H]5C[C@@](C)(C(=O)O)CC[C@]5(C)CC[C@@]4(C)[C@]3(C)CC[C@@H]12 [carbenoxolone] |  |  |  | 20 | improved |
